Read-outs that look alike come from different tables or passages of the source.
Legend:
Cannabinoid CB1 Receptor = target: T1, Cannabinoid CB1 Receptor (Homo sapiens, UniProt P21554); test: Binding assay, cannabinoid CB1 receptor ([3H]-CP-55,940 displacement, SK-N-MC cell membranes); conditions: for inhibition at 0.2 µM: read-out: Cannabinoid CB1 Receptor Binding, percent inhibition
T1 construct: expressed in transfected cells; semi-purified membrane pellet
Description: (§1) Binding Assay for CB1 or CB2 Agonists or Inverse Agonists
(§2) The human CB1 and CB2 receptors were stably expressed in SK-N-MC cells transfected with pcDNA3 CB-1 (human) or pcDNA3 CB-2 (human). The cells were grown in T-180 cell culture flasks under standard cell culture conditions at 37° C. in a 5% CO2 atmosphere. The cells were harvested by trysinization and homogenized in a homogenization buffer (10 mM Tris, 0.2 mM MgCl2, 5 mM KCl, with protease inhibitors aprotinin, leupeptin, pepstatin A and bacitracin) and centrifuged (2000 g). The supernatant was then centrifuged in 2M sucrose (31,300 g) to produce a semi-purified membrane pellet. The pellet was resuspended in homogenization and store at −80° C.
On the day of the assay, the pellet was thawed on ice and diluted in assay buffer (50 mM Tris-HCl, 5 mM MgCl2, 2.5 mM EDTA, 0.5 mg/mL fatty acid free bovine serum albumin, pH 7.5). […] The plate was covered and incubated for 90 minutes at 30° C. The contents were then aspirated onto a Packard Unifilter GF/C filter bottom plate prewet with 0.5% polyethyleneimine. The wells of the polypropylene plate were rinsed and aspirated seven times with a 0.9% saline-0.5% Tween 20 solution. The Unifilter plate was dried, a scintillation cocktail was added to each well and the counts representing binding were quantitated in a TopCount scintillation counter.
(§3) For compounds tested, an IC50 binding value was obtained from percent inhibition studies in which various test concentrations were used. The binding value (in μM) was calculated by linear regression.

Cannabinoid CB2 Receptor = target: T2, Cannabinoid CB2 Receptor (Homo sapiens, UniProt P34972); test: Binding assay, cannabinoid CB2 receptor ([3H]-CP-55,940 displacement, SK-N-MC cell membranes); conditions: test concentration of 0.2 μM; human CB2 in SK-N-MC membranes; read-out: Cannabinoid CB2 Receptor Binding, percent inhibition
T2 construct: expressed in transfected cells; semi-purified membrane pellet
Description: as §1, §2
On the day of the assay, the pellet was thawed on ice and diluted in assay buffer (50 mM Tris-HCl, 5 mM MgCl2, 2.5 mM EDTA, 0.5 mg/mL fatty acid free bovine serum albumin, pH 7.5). The diluted membrane was added with buffer, test compound or standard and the radioligand [H]^3+-CP-55,940 (0.2 nM) to the wells of a 96-well polypropylene plate. Non-specific binding was measured in wells containing 10 uM WIN 55,212. The plate was covered and incubated for 90 minutes at 30° C. The contents were then aspirated onto a Packard Unifilter GF/C filter bottom plate prewet with 0.5% polyethyleneimine. The wells of the polypropylene plate were rinsed and aspirated seven times with a 0.9% saline-0.5% Tween 20 solution. The Unifilter plate was dried, a scintillation cocktail was added to each well and the counts representing binding were quantitated in a TopCount scintillation counter.
as §3, with “regression. For compounds without an IC50 binding value, the percent inhibition (in %) was obtained at a test concentration of 0.2 μM.” for “regression.”

[1] = test concentration of 0.2 μM, human CB1 in SK-N-MC membranes

T2 sequence (P34972 whole entry): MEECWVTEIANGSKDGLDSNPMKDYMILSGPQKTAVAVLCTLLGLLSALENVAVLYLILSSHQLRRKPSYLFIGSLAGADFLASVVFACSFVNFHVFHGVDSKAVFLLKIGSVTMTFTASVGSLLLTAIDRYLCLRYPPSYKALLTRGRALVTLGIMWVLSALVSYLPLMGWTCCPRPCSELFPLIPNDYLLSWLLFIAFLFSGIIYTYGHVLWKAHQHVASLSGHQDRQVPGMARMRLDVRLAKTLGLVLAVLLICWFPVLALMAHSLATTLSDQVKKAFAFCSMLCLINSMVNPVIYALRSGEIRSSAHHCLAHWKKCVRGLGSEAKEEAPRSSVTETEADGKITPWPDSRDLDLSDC
T1 sequence (P21554 whole entry): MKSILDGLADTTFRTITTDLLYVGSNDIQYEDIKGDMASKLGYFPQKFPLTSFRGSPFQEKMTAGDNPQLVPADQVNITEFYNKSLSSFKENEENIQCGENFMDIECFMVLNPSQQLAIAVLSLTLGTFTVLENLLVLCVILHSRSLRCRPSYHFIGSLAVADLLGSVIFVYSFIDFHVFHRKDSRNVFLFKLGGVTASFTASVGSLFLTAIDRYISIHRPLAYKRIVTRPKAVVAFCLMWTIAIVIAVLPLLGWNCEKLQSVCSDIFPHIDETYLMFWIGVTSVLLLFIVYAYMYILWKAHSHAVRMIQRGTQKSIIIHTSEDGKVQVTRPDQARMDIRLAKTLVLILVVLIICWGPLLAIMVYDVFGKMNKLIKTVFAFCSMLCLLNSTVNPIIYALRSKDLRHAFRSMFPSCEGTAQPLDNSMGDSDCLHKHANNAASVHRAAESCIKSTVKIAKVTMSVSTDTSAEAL

Structure (SMILES) | inhibition at 0.2 µM (Cannabinoid CB1 Receptor; [1]) | inhibition at 0.2 µM (Cannabinoid CB2 Receptor) | IC50 (Cannabinoid CB1 Receptor) | inhibition at 0.2 µM (Cannabinoid CB1 Receptor)
C[C@H](NC(=O)c1nn(-c2ccc(Cl)cc2Cl)c2c1COC/C2=C\c1ccc(F)cc1)c1ccccc1 [Cpd 1, (7Z)-1-(2,4-dichloro-phenyl)-7-(4-fluoro-benzylidene)-1,4,6 7-tetrahydro-pyrano[4,3-c]pyrazole-3-carboxylic acid [(1S)-1-phenyl-ethyl]-amide] | 54% | 6% | – | –
C[C@@H](NC(=O)c1nn(-c2ccc(Cl)cc2Cl)c2c1COC/C2=C\c1ccc(F)cc1)c1ccccc1 [Cpd 2, (7 Z)-1-(2,4-dichloro-phenyl)-7-(4-fluoro-benzylidene)-1,4,6,7-tetrahydro-pyrano[4,3-c]pyrazole-3-carboxylic acid [(1R)-1-phenyl-ethyl]-amide] | 87% | 23% | 0.013 µM | –
O=C(N[C@@H]1CCC[C@H]1O)c1nn(-c2ccc(Cl)cc2Cl)c2c1COC/C2=C\c1ccc(F)cc1 [Cpd 3, (7Z)-1-(2,4-dichloro-phenyl)-7-(4-fluoro-benzylidene)-1,4,6,7-tetrahydro-pyrano[4,3-c]pyrazole-3-carboxylic acid [(1R,2R)-2-hydroxy-cyclopentyl]-amide] | 32% | 0% | – | –
O=C(N[C@H]1c2ccccc2C[C@H]1O)c1nn(-c2ccc(Cl)cc2Cl)c2c1COC/C2=C\c1ccc(F)cc1 [Cpd 4, (7Z)-1-(2,4-dichloro-phenyl)-7-(4-fluoro-benzylidene)-1,4,6,7-tetrahydro-pyrano[4,3-c]pyrazole-3-carboxylic acid [(1S,2R)-2-hydroxy-indan-1-yl]-amide] | 64% | 19% | – | –
O=C(N[C@@H]1c2ccccc2C[C@@H]1O)c1nn(-c2ccc(Cl)cc2Cl)c2c1COC/C2=C\c1ccc(F)cc1 [Cpd 5, (7Z)-1-(2,4-dichloro-phenyl)-7-(4-fluoro-benzylidene)-1,4,6,7-tetrahydro-pyrano[4,3-c]pyrazole-3-carboxylic acid [(1R,2S)-2-hydroxy-indan-1-yl)-amide] | 82% | 28% | 0.03 µM | –
O=C(NCc1ccccn1)c1nn(-c2ccc(Cl)cc2Cl)c2c1COC/C2=C\c1ccc(F)cc1 [Cpd 6, (7Z)-1-(2,4-dichloro-phenyl)-7-(4-fluoro-benzylidene)-1,4,6,7-tetrahydro-pyrano[4,3-c]pyrazole-3-carboxylic acid (pyridin-2-ylmethyl)-amide] | 37% | 25% | – | –
O=C(NN1CCCCC1)c1nn(-c2ccc(Cl)cc2Cl)c2c1COC/C2=C\c1ccc(F)cc1 [Cpd 7, (7Z)-1-(2,4-dichloro-phenyl)-7-(4-fluoro-benzylidene)-1,4,6,7-tetrahydro-pyrano[4,3-c]pyrazole-3-carboxylic acid piperidin-1-ylamide] | 79% | 8% | 0.04 µM | –
O=C(c1nn(-c2ccc(Cl)cc2Cl)c2c1COC/C2=C\c1ccc(F)cc1)N1CCCCC1 [Cpd 8, (7Z)-[1-(2,4-dichloro-phenyl)-7-(4-fluoro-benzylidene)-1,4,6,7-tetrahydro-pyrano[4,3-c]pyrazol-3-yl]-piperidin-1-yl-methanone] | 45% | 7% | – | –
O=C(NN1CCCC1)c1nn(-c2ccc(Cl)cc2Cl)c2c1COC/C2=C\c1ccc(F)cc1 [Cpd 9, (7Z)-1-(2,4-dichloro-phenyl)-7-(4-fluoro-benzylidene)-1,4,6,7-tetrahydro-pyrano[4,3-c]pyrazole-3-carboxylic acid pyrrolidin-1-ylamide] | 58% | 0% | – | –
O=C(c1nn(-c2ccc(Cl)cc2Cl)c2c1COC/C2=C\c1ccc(F)cc1)N1CCCC1 [Cpd 10, (7Z)-[1-(2,4-dichloro-phenyl)-7-(4-fluoro-benzylidene)-1,4,6,7-tetrahydro-pyrano[4,3-c]pyrazol-3-yl]-pyrrolidin-1-yl-methanone] | 33% | 14% | – | –
O=C(NN1CCCCC1)c1nn(-c2ccc(Cl)cc2)c2c1COC/C2=C\c1ccc(F)cc1 [Cpd 11, (7Z)-1-(4-chloro-phenyl)-7-(4-fluoro-benzylidene)-1,4,6,7-tetrahydro-pyrano[4,3-c]pyrazole-3-carboxylic acid piperidin-1-ylamide] | 55% | 6% | – | –
C[C@@H](NC(=O)c1nn(-c2ccc(Cl)cc2)c2c1COC/C2=C\c1ccc(F)cc1)c1ccccc1 [Cpd 12, (7Z)-1-(4-chloro-phenyl)-7-(4-fluoro-benzylidene)-1,4,6,7-tetrahydro-pyrano[4,3-c]pyrazole-3-carboxylic acid [(1R)-1-phenyl-ethyl]-amide] | 81% | 5% | 0.05 µM | –
C[C@@H](NC(=O)c1nn(-c2ccc(Cl)cc2)c2c1COC/C2=C\c1ccc(F)cc1)C1CCCCC1 [Cpd 13, (7Z)-1-(4-chloro-phenyl)-7-(4-fluoro-benzylidene)-1,4,6,7-tetrahydro-pyrano[4,3-c]pyrazole-3-carboxylic acid [(1R)-1-cyclohexyl-ethyl]-amide] | – | 25% | 0.02 µM | 84%
CN(C(=O)c1nn(-c2ccc(Cl)cc2)c2c1COC/C2=C\c1ccc(F)cc1)c1ccccc1 [Cpd 14, (7Z)-1-(4-chloro-phenyl)-7-(4-fluoro-benzylidene)-1,4,6,7-tetrahydro-pyrano[4,3-c]pyrazole-3-carboxylic acid methyl-phenyl-amide] | 49% | 7% | – | –
O=C(NN1CC2CCCC2C1)c1nn(-c2ccc(Cl)cc2)c2c1COC/C2=C\c1ccc(F)cc1 (centres unmarked) [Cpd 15, (7Z)-1-(4-chloro-phenyl)-7-(4-fluoro-benzylidene)-1,4,6,7-tetrahydro-pyrano[4,3-c]pyrazole-3-carboxylic acid (hexahydro-cyclopenta[c]pyrrol-2-yl)-amide] | 81% | 18% | 0.08 µM | –
O=C(NN1CCCC1)c1nn(-c2ccc(Cl)cc2)c2c1COC/C2=C\c1ccc(F)cc1 [Cpd 16, (7Z)-1-(4-chloro-phenyl)-7-(4-fluoro-benzylidene)-1,4,6,7-tetrahydro-pyrano[4,3-c]pyrazole-3-carboxylic acid pyrrolidin-1-ylamide] | 44% | 11% | – | –
O=C(NN1CC2CCCC2C1)c1nn(-c2ccc(Cl)cc2Cl)c2c1COC/C2=C\c1ccc(F)cc1 (centres unmarked) [Cpd 17, (7Z)-1-(2,4-dichloro-phenyl)-7-(4-fluoro-benzylidene)-1,4,6,7-tetrahydro-pyrano[4,3-c]pyrazole-3-carboxylic acid (hexahydro-cyclopenta[c]pyrrol-2-yl)-amide] | 99% | 29% | 0.02 µM | –
O=C(c1nn(-c2ccc(Cl)cc2)c2c1COC/C2=C\c1ccc(F)cc1)N1CCC[C@@H]1CO [Cpd 18, (7Z)-[1-(4-chloro-phenyl)-7-(4-fluoro-benzylidene)-1,4,6,7-tetrahydro-pyrano[4,3-c]pyrazol-3-yl]-[(2R)-2-hydroxymethyl-pyrrolidin-1-yl]-methanone] | 30% | 14% | – | –
O=C(c1nn(-c2ccc(Cl)cc2)c2c1COC/C2=C\c1ccc(F)cc1)N1CCC[C@H]1CO [Cpd 19, (7Z)-[1-(4-chloro-phenyl)-7-(4-fluoro-benzylidene)-1,4,6,7-tetrahydro-pyrano[4,3-c]pyrazol-3-yl]-[(2S)-2-hydroxymethyl-pyrrolidin-1-yl]-methanone] | 51% | 13% | – | –
O=C(c1nn(-c2ccc(Cl)cc2Cl)c2c1COC/C2=C\c1ccc(F)cc1)N1CCC[C@@H]1CO [Cpd 20, (7Z)-[1-(2,4-dichloro-phenyl)-7-(4-fluoro-benzylidene)-1,4,6,7-tetrahydro-pyrano[4,3-c]pyrazol-3-yl]-[(2R)-2-hydroxymethyl-pyrrolidin-1-yl]-methanone] | 27% | 18% | – | –

From patent publication US20100069341A1, “TETRAHYDRO-PYRANOPYRAZOLE CANNABINOID MODULATORS” (priority 2005, published 2010)
